Assay [1] relates to morphine withdrawal response in guinea-pigs. Particulars: systemic administration, only high doses active, Chahl & Johnston, 1992; cited from earlier work.
The test system of assay [2] is naloxone-precipitated withdrawal signs in rats. Particulars: central (i.c.v.) injection; rats receiving morphine for five days; Maldonado et al, 1993; cited from earlier work.
Assay [3] has as its target T1, NK-1 receptor (Meriones unguiculatus, UniProt Q5DUB1).
T1 construct: male or female Mongolian gerbils (35-70 g) are anaesthetised; from tissue; host or cells: brain of the living Mongolian gerbil (in vivo, agonist infused intracerebroventricularly)
As to the kind of experiment: Gerbil foot-tapping (Assay 2), inhibition of foot tapping induced by central infusion of NK-1 receptor agonist GR73632. The class given is in vivo, Mongolian gerbils. The following applies: iv. The source says:
ASSAY 2: Gerbil Foot-Tapping
CNS-penetrant NK-1 receptor antagonists for use in the present invention can be identified by their ability to inhibit foot tapping in gerbils induced by anxiogenic agents (such as pentagastrin) or central infusion of NK-1 receptor agonists such as GR73632, or caused by aversive stimulation such as foot shock or single housing, based on the method of Rupniak & Williams, Eur. J. Pharmacol., 1994, 265, 179.
Briefly, male or female Mongolian gerbils (35-70 g) are anaesthetised by inhalation of an isoflurane/oxygen mixture to permit exposure of the jugular vein in order to permit administration of test compounds or vehicle in an injection volume of 5 ml/kg i.v. Alternatively, test compounds may be administered orally or by subcutaneous or intraperitoneal routes. A skin incision is then made in the midline of the scalp to expose the skull. […]

Assay [4] concerns cisplatin-induced emesis in ferrets. As to the kind of experiment: Ferret emesis (Assay 3), inhibition of cisplatin-induced emesis. Format: in vivo. The following applies: Mustela putorius, po, 60 minutes before cisplatin 10 mg/kg i.v.; 4 hours observation; read-out: ferret emesis: ID90. The protocol: ASSAY 3: Ferret Emesis […] Ten minutes later they are fed with approximately 100 g of tinned cat food. At 60 minutes following oral dosing, cisplatin (10 mg/kg) is given i.v. via a jugular vein catheter inserted under a brief period of halothane anaesthesia. The catheter is then removed, the jugular vein ligated and the skin incision closed. The ferrets recover rapidly from the anaesthetic and are mobile within 10-20 minutes. The animals are observed continuously during recovery from the anaesthetic and for 4 hours following the cisplatin injection. The numbers of retches and vomits occurring during the 4 hours after cisplatin administration are recorded by trained observers.

Like-named read-outs stand apart in the source and are kept apart here. Bounds are passed on as bounds.

T1 sequence (Q5DUB1 whole entry, the tested form may be a part): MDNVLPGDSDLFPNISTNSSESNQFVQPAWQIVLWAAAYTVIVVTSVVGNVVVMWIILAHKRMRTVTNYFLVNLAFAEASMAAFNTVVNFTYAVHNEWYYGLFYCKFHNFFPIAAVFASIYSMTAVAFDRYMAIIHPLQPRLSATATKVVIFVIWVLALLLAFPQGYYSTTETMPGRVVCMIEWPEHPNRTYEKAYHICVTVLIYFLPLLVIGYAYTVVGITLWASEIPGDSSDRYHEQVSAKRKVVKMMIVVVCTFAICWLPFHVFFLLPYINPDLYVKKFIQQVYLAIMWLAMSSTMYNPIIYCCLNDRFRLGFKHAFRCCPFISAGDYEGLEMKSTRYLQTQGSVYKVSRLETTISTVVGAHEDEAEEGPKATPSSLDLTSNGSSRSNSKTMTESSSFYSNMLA

On to `COc1ccccc1CNC1C2CCN(CC2)C1C(c1ccccc1)c1ccccc1` (centres unmarked) [CP-96,345], for which the “doses active in blocking the withdrawal response” value in assay [1] is 20 mg/kg. As to `COc1ccccc1CC(=N)N1CC2C(=O)CCC(c3ccccc3)(c3ccccc3)C2C1` (centres unmarked) [RP67580], the “attenuation of naloxone-precipitated withdrawal signs” value in assay [2] was “could attenuate naloxone-precipitated withdrawal signs”. As for `C[C@@H](O[C@H]1OCCN(Cc2n[nH]c(=O)[nH]2)[C@H]1c1ccc(F)cc1)c1cc(C(F)(F)F)cc(C(F)(F)F)c1` [2-(R)-(1-(R)-(3,5-bis(trifluoromethyl)phenyl)ethoxy)-3-(S)-(4-fluorophenyl)-4-(3-(5-oxo-1H,4H-1,2,4-triazolo)methyl)morpholine], the ED50 in assay [3] (5 min, i.v., 5 mins., administered immediately prior to GR73632 challenge, read-out: gerbil foot-tapping (5 mins.): ID50) worked out at 0.36 mg/kg; in assay [3] (24 hours prior to central NK1 agonist challenge, read-out: gerbil foot-tapping (24 hrs.): ID50), 0.33 mg/kg. Also, in assay [4], the ED90 was under 3 mg/kg.

The values above are taken from US5919781A, “Use of NK-1 receptor antogonists for treating substance use disorders” (Merck Sharp & Dohme Ltd., priority 1996, dated 1999).
